The text below walks through data of patent publication US10407398B2, “Inhibitors of Pseudomonas aeruginosa LecB” (priority 2015, dated 2019).

In assay [1] the target is T1, LecBPAO1 (Pseudomonas aeruginosa, UniProt Q9HYN5).
T1 construct: made in house
As to the kind of experiment: biochemical. The assay is classed as binding.

Assay [2] has as its target T2, LecBPA14 (Pseudomonas aeruginosa, UniProt A0A0H2ZE85). As to the kind of experiment: biochemical. In kind it is binding, Pseudomonas aeruginosa UCBPP-PA14. As to the method:
The measured intensities were reduced by buffer values and fluorescence polarization was calculated. The data were analyzed using BMG Labtech MARS software and/or with Graphpad Prism and fitted according to the four parameter variable slope model. […] A minimum of three independent measurements of triplicates each was performed for every ligand.

Assay [3] concerns the target LecB (Pseudomonas aeruginosa, UniProt Q9HYN5). As to conditions: background art; cited from earlier work.
Assay [4] concerns the target T1, LecBPAO1. As to the kind of experiment: Microcalorimetric assay (ITC) for direct binding. The settings on record: for N: ITC binding stoichiometry, one site binding model; for N / ΔG / ΔH / −TΔS: LecBPAO1; for ΔG / ΔH / −TΔS: ITC, 25° C. As to the method: (§1) The temperature of the sample cell was 25° C. The titration was performed with a solution of ligands in the same buffer.

For assay [5], the target named is T2, LecBPA14. Put plainly: biochemical. The assay is classed as binding, Pseudomonas aeruginosa UCBPP-PA14. The settings on record: for N: ITC binding stoichiometry, one site binding model; for N / ΔG / ΔH / −TΔS: LecBPA14; for ΔG / ΔH / −TΔS: ITC, 25° C. As to the method: as §1

Usually IC50 stands for the concentration that inhibits the measured activity by half. A lower IC50 goes with higher potency. The Kd is the free concentration of one partner at which half of the binding sites on the other are occupied at equilibrium, for simple one-to-one binding.

T2 sequence (A0A0H2ZE85 entry or part of it): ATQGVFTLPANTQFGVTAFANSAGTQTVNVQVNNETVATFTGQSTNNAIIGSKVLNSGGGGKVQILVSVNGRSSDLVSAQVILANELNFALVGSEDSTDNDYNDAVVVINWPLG
T1 sequence (Q9HYN5 entry or part of it): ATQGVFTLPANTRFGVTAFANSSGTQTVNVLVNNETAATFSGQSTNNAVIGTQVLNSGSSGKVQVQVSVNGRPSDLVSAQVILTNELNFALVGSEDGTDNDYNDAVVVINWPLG
LecB, sequence (Q9HYN5 entry or part of it): as above

As for `CC1OCC(O)C(O)[C@@]1(O)CCNS(C)(=O)=O` (stereo partly drawn) [1-deoxy-4(R)—C-(ethylmethylsulfonamide) L-fucose], the IC50 in assay [1] is 440 ± 70 nM; in assay [2], 150 ± 20 nM.

Consider `CC1OCC(O)C(O)[C@@]1(O)Cc1ccccc1` (stereo partly drawn) [1-deoxy-4(S)—C-(benzyl) L-fucose], for which the figures for the IC50 in assay [1] and in assay [2] were 2610 ± 20 nM and 620 ± 80 nM, respectively.

With `CC1OCC(O)C(O)[C@@]1(O)CC#N` (stereo partly drawn) [1-deoxy-4(S)—C-(cyanomethyl) L-fucose], the figures for the IC50 in assay [1] and in assay [2] were 1690 ± 150 nM and 580 ± 110 nM, respectively.

`CC1OCC(O)C(O)[C@@]1(O)C1CCCCC1` (stereo partly drawn) [1-deoxy-4(S)—C-(cyclohexyl) L-fucose]: the IC50 is 2590 ± 90 nM in assay [1] and 750 ± 130 nM in assay [2].

Regarding `CCCCCC[C@@]1(O)C(C)OCC(O)C1O` (stereo partly drawn) [1-deoxy-4(S)—C-(hexyl) L-fucose], the results for the half-maximal inhibitory concentration (IC50) in assay [1] and in assay [2] were 610 ± 90 nM and 330 ± 160 nM, respectively.

Turning to `CC(C)CC[C@@]1(O)C(C)OCC(O)C1O` (stereo partly drawn) [1-deoxy-4(S)—C-(isopentyl) L-fucose], the IC50 in assay [1] amounted to 780 ± 90 nM; in assay [2] it was 450 ± 120 nM.

As for `CC1OCC(O)C(O)[C@]1(C)O` (stereo partly drawn) [1-deoxy-4(S)—C-(methyl) L-fucose], the half-inhibitory concentration (IC50) in assay [1] was 460 ± 70 nM; in assay [2] it was 170 ± 30 nM.

`CC1OCC(O)C(O)[C@@]1(O)c1ccccc1` (stereo partly drawn) [1-deoxy-4(S)—C-(phenyl) L-fucose]: the half-maximal inhibitory concentration (IC50) in assay [1] was 4970 ± 360 nM; in assay [2], 1480 ± 80 nM.

Turning to `CCC[C@@]1(O)C(C)OCC(O)C1O` (stereo partly drawn) [1-deoxy-4(S)—C-(propyl) L-fucose], the half-maximal inhibitory concentration (IC50) was determined as 660 ± 90 nM in assay [1] and 230 ± 50 nM in assay [2].

Take `CC(=O)N[C@H]1C(O)O[C@H](CO)[C@@H](O[C@@H]2O[C@@H](C)[C@@H](O)[C@@H](O)[C@@H]2O)[C@@H]1O[C@@H]1O[C@H](CO)[C@H](O)[C@H](O)[C@H]1O` (stereo partly drawn) [Lewis^a trisaccharide, α-Fuc1-4((βGal1-3)-GlcNAc]: the dissociation constant Kd in assay [3] was 210 nM.

Regarding `CC1OCC(O)C(O)[C@@H]1O` (stereo partly drawn) [drawing 74, 1-deoxy-L-fucose, reference compound], the figures for the IC50 in assay [1] and in assay [2] were 1550 ± 500 nM and 600 ± 140 nM, respectively.

As for `CC[C@@]1(O)C(C)OCC(O)C1O` (stereo partly drawn) [drawing 82, 1-deoxy-4(S)—C-(ethyl) L-fucose], the results for the IC50 in assay [1] and in assay [2] were 390 ± 60 nM and 140 ± 30 nM, respectively.

On to `CCCC[C@@]1(O)C(C)OCC(O)C1O` (stereo partly drawn) [drawing 84, 1-deoxy-4(S)—C-(butyl) L-fucose], for which the 50% inhibitory concentration (IC50) in assay [1] worked out at 650 ± 10 nM; in assay [2], 230 ± 30 nM.

With `Cc1cc(C)c(S(=O)(=O)NC[C@H]2OC(C)[C@@H](O)C(O)C2O)c(C)c1` (stereo partly shown) [drawing 93], the results for the IC50 in assay [1] and in assay [2] were 980 ± 60 nM and 420 ± 200 nM, respectively.

Consider `CC1O[C@H](CNC(=O)/C=C/c2ccccc2)C(O)C(O)[C@@H]1O` (stereo partly shown) [drawing 111], for which the IC50 in assay [1] amounted to 4210 ± 940 nM; in assay [2], 2490 ± 200 nM.

As for `CC1OCC(O)C(O)[C@@H]1O` (stereo partly drawn) [drawing 115, 1-deoxy-L-fucose, reference compound], in assay [4], the Kd stood at 773 ± 110 nM, the N amounted to 1.07 ± 0.03, the “ΔG” value was -8.34 ± 0.0837 kcal/mol and the “ΔH” value was -8.68 ± 0.217 kcal/mol. In assay [4], the “−TΔS” value was 0.327 ± 0.272 kcal/mol. In assay [5], the Kd came to 453 ± 120 nM, the N is given as 0.94 ± 0.04, the “ΔG” value was -8.68 ± 0.153 kcal/mol and the “ΔH” value is -7.58 ± 0.261 kcal/mol. Also, in assay [5], the “−TΔS” value was -1.1 ± 0.399 kcal/mol.

As for `CC[C@@]1(O)C(C)OCC(O)C1O` (stereo partly shown) [drawing 116], in assay [4], the Kd is 201 ± 42 nM, the N amounted to 1.03 ± 0.13, the “ΔG” value was -9.13 ± 0.129 kcal/mol and the “ΔH” value is -12.4 ± 1.09 kcal/mol. In assay [4], the “−TΔS” value was 3.2 ± 1.12 kcal/mol. In addition, in assay [5], the affinity, expressed as Kd, was 130 ± 49 nM; the N is 0.96 ± 0.04; the “ΔG” value is -9.42 ± 0.208 kcal/mol; the “ΔH” value is -10 ± 0.277 kcal/mol. Besides, in assay [5], the “−TΔS” value worked out at 0.619 ± 0.263 kcal/mol.

Turning to `CCCC[C@@]1(O)C(C)OCC(O)C1O` (stereo partly shown) [drawing 117], in assay [4], the Kd is 401 ± 84 nM, the N amounted to 1.02 ± 0.09, the “ΔG” value is -8.75 ± 0.0956 kcal/mol and the “ΔH” value is -11.3 ± 0.12 kcal/mol. Further, in assay [4], the “−TΔS” value worked out at 2.51 ± 0.186 kcal/mol. In assay [5], the Kd was 246 ± 47 nM, the N came out at 1.03 ± 0.08, the “ΔG” value was -9.01 ± 0.115 kcal/mol and the “ΔH” value is -9.42 ± 0.0096 kcal/mol. Also, in assay [5], the “−TΔS” value came to 0.394 ± 0.117 kcal/mol.

Regarding `CC1O[C@H](CNC(=O)/C=C/c2ccccc2)C(O)C(O)[C@@H]1O` (stereo partly shown) [drawing 118], in assay [4], the equilibrium dissociation constant (Kd) stood at 3090 ± 840 nM, the N came out at 0.93 ± 0.01, the “ΔG” value was -7.53 ± 0.165 kcal/mol and the “ΔH” value was -7.86 ± 0.394 kcal/mol. Besides, in assay [4], the “−TΔS” value worked out at 0.327 ± 0.32 kcal/mol. In assay [5], the affinity, expressed as Kd, was 2590 ± 390 nM; the N is reported as 1.07 ± 0.05; the “ΔG” value is -7.29 ± 0.523 kcal/mol; the “ΔH” value is -7.5 ± 0.344 kcal/mol. Further, the “−TΔS” value in assay [5] came to 0.21 ± 0.239 kcal/mol.

For the compound `Cc1cc(C)c(S(=O)(=O)NC[C@H]2OC(C)[C@@H](O)C(O)C2O)c(C)c1` (stereo partly shown) [drawing 119], in assay [4], the Kd turned out to be 1270 ± 120 nM, the N turned out to be 0.99 ± 0.04, the “ΔG” value is -8.03 ± 0.0574 kcal/mol and the “ΔH” value is -8.41 ± 0.0096 kcal/mol. The “−TΔS” value in assay [4] was determined as 0.363 ± 0.0502 kcal/mol. In assay [5], the Kd was found to be 310 ± 50 nM, the N amounted to 0.98 ± 0.05, the “ΔG” value was -8.87 ± 0.105 kcal/mol and the “ΔH” value is -9.03 ± 0.88 kcal/mol. In addition, the “−TΔS” value in assay [5] stood at 0.155 ± 0.774 kcal/mol.
